# How the values were obtained:
# [1] = tested on: K.pneumoniae DT-S; experiment: In vitro antibacterial activity (MIC), Japan Society of Chemotherapy Standard; type: cell-based; conditions: Klebsiella pneumoniae; inoculated cells 10⁶ cells/ml
# Protocol: (§1) The in vitro antibacterial activity (minimum inhibitory concentration, MIC, µg/ml) of the test compounds was determined according to Japan Society of Chemotherapy Standard [Chemotherapy, vol. 29, pp 76-79 (1981)].
# (§2) Inoculated cells were 10⁶ cells/ml and the strain with * was incubated in a medium supplemented with 10% horse blood. The mark "1)" means quinolone resistant MRSA and "2)" means quinolone resistant bacteria.
# [2] = tested on: Proteus vulgaris IFO 3988; experiment: as above; type: cell-based; conditions: IFO3988, inoculated cells 10⁶ cells/ml
# Protocol: as §1, §2
# [3] = tested on: Enterobacter cloacae IFO 12937; experiment: as above; type: cell-based; conditions: IFO12937, inoculated cells 10⁶ cells/ml
# Protocol: as §1, §2
# [4] = tested on: Shigella flexneri EW-10; experiment: as above; type: cell-based; conditions: EW10, inoculated cells 10⁶ cells/ml
# Protocol: as §1, §2
# [5] = tested on: S. epidermidis ATCC 12228; experiment: as above; type: cell-based; conditions: Staphylococcus epidermidis, ATCC12228; inoculated cells 10⁶ cells/ml
# Protocol: as §1, §2
# [6] = tested on: P.aeruginosa U-31; experiment: as above; type: cell-based; conditions: Pseudomonas aeruginosa, U31; inoculated cells 10⁶ cells/ml
# Protocol: as §1, §2
# [7] = tested on: P. mirabilis IFO 3849; experiment: as above; type: cell-based; conditions: Proteus mirabilis, IFO3849; inoculated cells 10⁶ cells/ml
# Protocol: as §1, §2
# [8] = tested on: Enterococcus faecalis LS-101; experiment: as above; type: cell-based; conditions: LS101, inoculated cells 10⁶ cells/ml
# Protocol: as §1, §2
# [9] = tested on: Staphylococcus aureus FDA 209P; experiment: as above; type: cell-based; conditions: FDA209P, inoculated cells 10⁶ cells/ml
# Protocol: as §1, §2
# [10] = tested on: Escherichia coli NIHJ JC-2; experiment: as above; type: cell-based; conditions: NIHJJC2, inoculated cells 10⁶ cells/ml
# Protocol: as §1, §2
# [11] = tested on: Serratia marcescens IFO 12648; experiment: as above; type: cell-based; conditions: IFO12648, inoculated cells 10⁶ cells/ml
# Protocol: as §1, §2
# [12] = tested on: E. faecium EFMY-28; experiment: as above; type: cell-based; conditions: Enterococcus faecium, EFMY28; inoculated cells 10⁶ cells/ml
# Protocol: as §1, §2
# [13] = tested on: S. pneumoniae Type-III; experiment: as above; type: cell-based; conditions: Streptococcus pneumoniae; inoculated cells 10⁶ cells/ml; medium supplemented with 10% horse blood
# Protocol: as §1, §2
# [14] = tested on: A.calcoaceticus IFO 13006; experiment: as above; type: cell-based; conditions: Acinetobacter calcoaceticus, IFO13006; inoculated cells 10⁶ cells/ml
# Protocol: as §1, §2
# [15] = tested on: E. avium EAY-30; experiment: as above; type: cell-based; conditions: Enterococcus avium, EAY30, inoculated cells 10⁶ cells/ml
# Protocol: as §1, §2
# [16] = tested on: S. aureus No.88; experiment: as above; type: cell-based; conditions: Staphylococcus aureus; quinolone resistant MRSA; inoculated cells 10⁶ cells/ml
# Protocol: as §1, §2
# [17] = tested on: Citrobacter freundii IFO 12681; experiment: as above; type: cell-based; conditions: IFO12681, inoculated cells 10⁶ cells/ml
# Protocol: as §1, §2
# [18] = tested on: L.monocytogenes VTU-206; experiment: as above; type: cell-based; conditions: Listeria monocytogenes, VTU206; inoculated cells 10⁶ cells/ml; medium supplemented with 10% horse blood
# Protocol: as §1, §2
# [19] = tested on: Streptococcus pyogenes C-203; experiment: as above; type: cell-based; conditions: C203, inoculated cells 10⁶ cells/ml, medium supplemented with 10% horse blood
# Protocol: as §1, §2
# [20] = tested on: M.catarrhalis ATCC 25238; experiment: as above; type: cell-based; conditions: Moraxella catarrhalis, ATCC25238; inoculated cells 10⁶ cells/ml; medium supplemented with 10% horse blood
# Protocol: as §1, §2
# [21] = tested on: male ICR mice; experiment: Preliminary micronucleus test; type: in vivo; conditions: for Emergence of micronucleus in polychromatic cells compared with the control group: after 24 hours, Example 5: in the dose of 1,000 mg/kg or above
# Protocol: A preliminary micronucleus test was performed by oral administration to male ICR mice. […]
# [22] = tested on: Chlamydia trachomatis D/UW-3Cx; experiment: Antibacterial effect against specific bacteria (MIC); type: cell-based; conditions: same manner as Experimental Example 1
# Protocol: as §1
# (§3) In the same manner as in Experimental Example 1, the antibacterial effect against specific bacteria such as Chlamydia, Mycoplasma and acid-fast bacteria and anaerobic bacteria was determined.
# [23] = tested on: Mycobacterium smegmatis IFO 13167; experiment: as above; type: cell-based; conditions: Mycolicibacterium smegmatis, IFO13167; same manner as Experimental Example 1
# Protocol: as §1, §3
# [24] = tested on: Ureaplasma urealyticum ATCC 27618; experiment: as above; type: cell-based; conditions: ATCC27618, same manner as Experimental Example 1
# Protocol: as §1, §3
# [25] = tested on: Mycoplasma pneumoniae ATCC 29343; experiment: as above; type: cell-based; conditions: ATCC29343, same manner as Experimental Example 1
# Protocol: as §1, §3
# [26] = tested on: Bacteroides fragilis GAI 5560; experiment: as above; type: cell-based; conditions: GAI5560, same manner as Experimental Example 1
# Protocol: as §1, §3
# [27] = tested on: S. aureus MRSA Y-238; experiment: Protection of mice from experimental infection; type: in vivo; conditions: Table 3-1: male mice; intraperitoneal inoculation 7.5×10⁶ cells/mouse (185×LD₅₀); oral administration one hour after inoculation; survival ratio at 7 days
# Protocol: (§4) Experimental infection was caused by intraperitoneal inoculation of respective bacteria to male mice. One hour after the inoculation, a test compound was orally administered to the mice. The therapeutic effect of each test compound was evaluated by reference to the 50% effective dose (ED₅₀) which was based on the survival ratio at 7 days after the administration according to the probit method [Proc. Soc. Exp. Med., Vol. 57, p 261-264 (1944)]. The minimum inhibitory concentration (MIC) of the infectious bacteria used was also determined. […]
# [28] = tested on: E. coli KC-14; experiment: Protection of mice from experimental infection; type: in vivo; conditions: Table 3-1: male mice; intraperitoneal inoculation 5.0×10⁶ cells/mouse (744×LD₅₀); oral administration one hour after inoculation; survival ratio at 7 days
# Protocol: as §4
# [29] = tested on: S. aureus Smith; experiment: Protection of mice from experimental infection; type: in vivo; conditions: male mice; intraperitoneal inoculation 2.8×10⁶ cells/mouse (123×LD₅₀); oral administration one hour after inoculation; survival ratio at 7 days, probit method
# Protocol: as §4
# [30] = tested on: S. aureus MRSA Y-238; experiment: MIC of the infectious bacteria used for experimental infection; type: cell-based; conditions: Staphylococcus aureus, infectious strain of the mouse protection test
# Protocol: as §1, §4
# [31] = tested on: E. coli KC-14; experiment: as above; type: cell-based; conditions: Escherichia coli, KC14; infectious strain of the mouse protection test
# Protocol: as §1, §4
# [32] = tested on: S. aureus Smith; experiment: as above; type: cell-based; conditions: Staphylococcus aureus; infectious strain of the mouse protection test
# Protocol: as §1, §4
Compound,MIC [1],MIC [2],MIC [3],MIC [4],MIC [5],MIC [6],MIC [7],MIC [8],MIC [9],MIC [10],MIC [11],MIC [12],MIC [13],MIC [14],MIC [15],MIC [16],MIC [17],MIC [18],MIC [19],MIC [20],further results
"COc1c(N2CCC(N)(CN)CC2)c(F)cc2c(=O)c(C(=O)O)cn(C3CC3)c12 [Comp. Ex. 1, 7-(4-amino-4-aminomethylpiperidin-1-yl)-1-cyclopropyl-6-fluoro-1,4-dihydro-8-methoxy-4-oxo-3-quinolinecarboxylic acid, reference compound]",6.25 µg/mL,25 µg/mL,12.5 µg/mL,0.39 µg/mL,0.78 µg/mL,12.5 µg/mL,25 µg/mL,1.56 µg/mL,0.1 µg/mL,1.56 µg/mL,6.25 µg/mL,,,,,,,,,,
"COc1c(N2CCC(N)(CF)C2)c(F)cc2c(=O)c(C(=O)O)cn(C3CC3)c12 (stereo not shown) [Example 1, 7-(3-amino-3-fluoromethylpyrrolidin-1-yl)-1-cyclopropyl-6-fluoro-1,4-dihydro-8-methoxy-4-oxo-3-quinolinecarboxylic acid]",0.025 µg/mL,0.2 µg/mL,0.2 µg/mL,≤ 0.006 µg/mL,0.012 µg/mL,0.39 µg/mL,0.39 µg/mL,0.012 µg/mL,≤ 0.006 µg/mL,0.025 µg/mL,0.2 µg/mL,0.2 µg/mL,0.012 µg/mL,0.05 µg/mL,0.1 µg/mL,0.39 µg/mL,0.05 µg/mL,0.1 µg/mL,0.05 µg/mL,0.012 µg/mL,
"COc1c(N2CC[C@](N)(CF)C2)c(F)cc2c(=O)c(C(=O)O)cn(C3CC3)c12 [Example 5, (R)-7-(3-amino-3-fluoromethylpyrrolidin-1-yl)-1-cyclopropyl-6-fluoro-1,4-dihydro-8-methoxy-4-oxo-3-quinolinecarboxylic acid]",0.05 µg/mL,0.39 µg/mL,0.2 µg/mL,0.012 µg/mL,0.012 µg/mL,0.39 µg/mL,0.2 µg/mL,0.012 µg/mL,≤ 0.006 µg/mL,0.025 µg/mL,0.2 µg/mL,0.1 µg/mL,0.012 µg/mL,0.025 µg/mL,0.1 µg/mL,0.78 µg/mL,0.05 µg/mL,0.1 µg/mL,0.05 µg/mL,0.012 µg/mL,"Emergence of micronucleus in polychromatic cells compared with the control group ([21]; oral): showed significant increase in emergence frequency of micronucleus; Emergence of micronucleus (%) ([21]; oral, dose 500 mg/kg): 0.45±0.28 %; Emergence of micronucleus (%) ([21]; oral, dose 1000 mg/kg): 1.45±1.45 %; Emergence of micronucleus (%) ([21]; oral, dose 2000 mg/kg): 2.38±0.85 %"
"COc1c(N2CC[C@@](N)(CF)C2)c(F)cc2c(=O)c(C(=O)O)cn(C3CC3)c12 [Example 6, (S)-7-(3-amino-3-fluoromethylpyrrolidin-1-yl)-1-cyclopropyl-6-fluoro-1,4-dihydro-8-methoxy-4-oxo-3-quinoline carboxylic acid]",0.05 µg/mL,0.39 µg/mL,0.2 µg/mL,0.012 µg/mL,≤ 0.006 µg/mL,0.39 µg/mL,0.2 µg/mL,0.012 µg/mL,≤ 0.006 µg/mL,0.025 µg/mL,0.2 µg/mL,0.2 µg/mL,0.025 µg/mL,0.025 µg/mL,0.1 µg/mL,0.39 µg/mL,0.1 µg/mL,0.1 µg/mL,0.05 µg/mL,0.012 µg/mL,"MIC [22]: 0.012 µg/mL; MIC [23]: 0.1 µg/mL; MIC [24]: 0.1 µg/mL; MIC [25]: 0.025 µg/mL; MIC [26]: 0.05 µg/mL; ED₅₀ (mg/mouse) (95% confidence limit) [27]: 1.54(1.103-2.151) mg/mouse; ED₅₀ (mg/mouse) (95% confidence limit) [28]: 0.011(0.008-0.015) mg/mouse; ED₅₀ (mg/mouse) (95% confidence limit) [29]: 0.036(0.025-0.052) mg/mouse; MIC [30]: 0.39 µg/mL; MIC [31]: 0.012 µg/mL; MIC [32]: ≤ 0.006 µg/mL; Emergence of micronucleus in polychromatic cells compared with the control group ([21]; oral): did not show significant difference in emergence of micronucleus; Emergence of micronucleus (%) ([21]; oral, dose 500 mg/kg): 0.16±0.16%; Emergence of micronucleus (%) ([21]; oral, dose 1000 mg/kg): 0.16±0.11%; Emergence of micronucleus (%) ([21]; oral, dose 2000 mg/kg): 0.26±0.04%"
"CO[C@@]12[C@H](COC(N)=O)C3=C(C(=O)C(C)=C(N)C3=O)N1C[C@@H]1N[C@@H]12 [MMC, mitomycin C, reference compound]",,,,,,,,,,,,,,,,,,,,,Emergence of micronucleus (%) ([21]; dose 1 mg/kg (positive control)): 2.36±1.52 %

# From patent publication EP0677522A1, “8-METHOXYQUINOLONECARBOXYLIC ACID DERIVATIVE” (priority 1992, dated 1994)
